Results on eight compounds are retold here after paper PMC9954146, “Anti-Leukaemic Activity of Rilpivirine Is Mediated by Aurora A Kinase Inhibition” (Cancers, 2023).

Experiment [1] relates to SKOV-3 ovarian-cancer cells. Set-up: method as in PMID 28390117. Particulars: FACS analysis; cited from earlier work.
For another experiment, the system named is HL-60 cells. In words: Resazurin cell viability assay. It is filed as cell-based. The conditions noted are these: Homo sapiens, HL-60, 72 h; read-out: 72-h GI50. The method, then:
Cell viability was determined by a resazurin-based assay as described previously. […] At the end of the treatment period, 20 µL of resazurin (0.1 mg/mL in PBS) was added per well and incubated for further 4 h.

Experiment [2] concerns K-562 cells. Put plainly: Cell cycle analysis (PI, flow cytometry). It is filed as cell-based, human. The procedure: (§1) To determine the effect of rilpivirine on cell-cycle distribution a flow cytometry-based analysis was performed after staining the untreated and treated cells with propidium iodide (PI) solution [22]. Briefly, 6 × 10^4 cells/well were seeded in 3 mL of medium per well in 6-well plates. After overnight incubation at 37 °C in 5% CO2, the cells were incubated with the test compounds for specified time points. The medium-containing cells were then taken out from the wells and transferred to FACS tubes. Cells were then pelleted by centrifugation at 300 g for 5 min. Afterward, cells were fixed by using 70% (v/v) ice-cold ethanol for 15 min and then again pelleted by centrifugation (300 g for 5 min). Finally, the cells were incubated with 200 µL of PI staining solution (50 μg/mL PI, 0.1% sodium citrate, 0.1 mg/mL RNase A, and 0.1% Triton X-100) for 1.5 h at room temperature in the dark. After the incubation period, the cells were analysed using a CytoFLEX flow cytometer (Beckman Coulter Inc., Brea, CA, USA). CytExpert software version 2.1 was used for data analysis and graph preparation.

In a further experiment the test system is NB4 cells. In words: Cell cycle analysis (PI, flow cytometry). In kind it is cell-based, human. Particulars: 10 µM, 24 h. The procedure:
as §1

For another experiment, the system named is U-937 cells. Put plainly: Cell cycle analysis (PI, flow cytometry). It is filed as cell-based, human. Particulars: 10 µM, 24 h. The method, then:
as §1

Another experiment has as its system Aurora A. Set-up: method as in PMID 36297298. Particulars: cited from earlier work.
The next experiment concerns KG1 cells. Set-up: method as in PMID 18056483. Particulars: cited from earlier work.
For experiment [3], the system named is K-562 cells. In words: Resazurin cell viability assay. It is filed as cell-based, human. The conditions noted are these: 72 h. The method, then:
Cell viability was determined by a resazurin-based assay as described previously. Briefly, 5 × 10^3 cells/well were seeded into 96-well plates (Corning Inc., Corning, NY, USA) in 180 µL of RPMI 1640 medium and incubated overnight at 37 °C with 5% CO2. Next day, cells were treated with rilpivirine after serially diluted (1:2 dilution for final concentrations ranging from 0.625 µM to 40 µM) or DMSO (0.1%) for specified time periods (24, 48, or 72 h). At the end of the treatment period, 20 µL of resazurin (0.1 mg/mL in PBS) was added per well and incubated for further 4 h. Fluorescence intensities were recorded at 570 nm (excitation)/585 nm (emission) using an EnVision® multilabel plate reader (PerkinElmer, MA, USA). Drug concentrations required for cell viability reduction by 50% (GI50) compared with untreated (DMSO vehicle-treated only) control were determined by a non-linear regression model using GraphPad Prism software version 7.02 (La Jolla, CA, USA).

`C[C@H](Cn1cnc2c(N)ncnc21)OCP(=O)(O)O` [tenofovir]: in experiment [1], the cell-cycle phase arrest entry is given as “predominance of a G0/G1 phase arrest”.

Consider `Nc1ccn([C@@H]2O[C@H](CO)[C@@H](O)[C@@H]2O)c(=O)n1` [cytarabine], for which the GI50 in the experiment with HL-60 cells turned out to be 70 nM.

Regarding `O=C1Nc2ccc(Cl)cc2[C@@](C#CC2CC2)(C(F)(F)F)O1` [efavirenz], the cell-cycle phase arrest entry in experiment [1] is reported as “predominance of a G0/G1 phase arrest”.

For the compound `Cc1cc(C#N)cc(C)c1Oc1nc(Nc2ccc(C#N)cc2)nc(N)c1Br` [etravirine], the G2/M phase arrest entry is recorded as “failed to induce a G2/M phase arrest” with K-562 cells [2] (10 µM, 24 h); “failed to induce a G2/M phase arrest” in the experiment with NB4 cells; “failed to induce a G2/M phase arrest” with U-937 cells. The “Aurora A kinase inhibition” value with Aurora A was “inability to inhibit Aurora A kinase”. Also, the cell-cycle phase arrest result in experiment [1] was “predominance of a G0/G1 phase arrest”. In addition, in experiment [1], the “proportion of cells in the G2/M phase” value is listed as “failed to increase the proportion of cells in the G2/M phase”.

In the case of `Nc1nc(NC2CC2)c2ncn([C@H]3C=C[C@@H](CO)C3)c2n1` [abacavir], the cell-cycle phase arrest result in experiment [1] was “predominance of a G0/G1 phase arrest”.

Consider `CC(C)(C)n1nc(-c2ccc(Cl)cc2)c2c(N)ncnc21` [PP2], for which the cell-cycle arrest entry with KG1 cells is “induced G1 cell-cycle arrest”.

Consider `N[C@@H]1CCCN(c2c(/C=C3\SC(=O)NC3=O)cccc2-c2ccccc2)C1` [AZD1208], for which the concentration for 50% growth inhibition (GI50) in the experiment with K-562 cells [3] was about 38 µM. For the same compound, the cell-cycle arrest result with K-562 cells [2] (60 μM, 48 h) is on record as “induced G1 arrest”.

For `CC(C)CN(C[C@@H](O)[C@H](Cc1ccccc1)NC(=O)O[C@H]1CO[C@H]2OCC[C@H]21)S(=O)(=O)c1ccc(N)cc1` [darunavir], the cell-cycle phase arrest result in experiment [1] is listed as “predominance of a G0/G1 phase arrest”.
